Laboratory results from publication PMC3523391 (Leukemia, 2012).

Key:
[1] = test system: MOLM-13-RES cells; assay: MTS cell viability assay, MOLM-13-RES; assay type: cell-based, human; conditions: ratio of in vitro viability potency, MOLM-13-RES vs MOLM-13
[2] = single-agent phase I-II clinical trial in AML; cited from earlier work
[3] = in mice; cited from earlier work
[4] = in vivo; set-up: species or system mice; conditions: female, athymic CrTac:NCr-Fox1(nu), mouse, po, 160 mg/kg

| SMILES | relative resistance of MOLM-13-RES compared with parental MOLM-13 cells [1] | response rate [2] [%] | also measured |
| --- | --- | --- | --- |
| CC(C)(C)c1cc(NC(=O)Nc2ccc(-c3cn4c(n3)sc3cc(OCCN5CCOCC5)ccc34)cc2)no1 [AC220] | approximately 23 fold | – | – |
| CCN(CCCOc1ccc2c(Nc3cc(CC(=O)Nc4cccc(F)c4)n[nH]3)ncnc2c1)CCOP(=O)(O)O [AZD1152] | – | 25 | – |
| COc1cc2c(N3CCN(C(=O)Nc4ccc(OC(C)C)cc4)CC3)ncnc2cc1OCCCN1CCCCC1 [MLN518] | – | – | plasma protein binding [3]: 80%; concentration at 1 h after the last dose [4]: ~200 nM; concentration at 6 h after the last dose [4]: ~40 nM |
| COc1cc(Nc2ncc3c(n2)-c2ccc(Cl)cc2C(c2c(F)cccc2OC)=NC3)ccc1C(=O)O [MLN8237] | – | 17 | – |
| CNC(=O)c1cc(Oc2ccc(NC(=O)Nc3ccc(Cl)c(C(F)(F)F)c3)cc2)ccn1 [Sorafenib] | approximately 60 fold | – | – |
